{"source": "patent US9790210B2", "about": "“N-(monocyclic aryl),N'-pyrazolyl-urea, thiourea, guanidine and cyanoguanidine compounds as TrkA kinase inhibitors” (Array BioPharma Inc., priority 2012, dated 2017)", "test_in_all_cases": "KinaseProfiler", "type_in_all_cases": "biochemical", "details_in_all_cases": "10 μM, ATP near Km", "key": {"[1]": {"biological_target": "T1, TLK2 (Homo sapiens, UniProt Q86UE8)", "T1 construct": "purchased Millipore, Inc. (KinaseProfiler service)", "summary_of_the_method": "(§1)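 Duplicate determinations at 10 μM test compound; ATP approx. Km for each target. POC reported as replicate mean.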"}, "[2]": {"biological_target": "T2, FGFR1 (Homo sapiens, UniProt P11362)", "T2 construct": "purchased Millipore, Inc. (KinaseProfiler service)", "summary_of_the_method": "as §1"}, "[3]": {"biological_target": "T3, TAO3 (Homo sapiens, UniProt Q9H2K8)", "T3 construct": "purchased Millipore, Inc. (KinaseProfiler service)", "summary_of_the_method": "as §1"}, "[4]": {"biological_target": "T4, ULK3 (Homo sapiens, UniProt Q6PHR2)", "T4 construct": "purchased Millipore, Inc. (KinaseProfiler service)", "summary_of_the_method": "as §1"}, "[5]": {"biological_target": "T5, EphA1 (Homo sapiens, UniProt P21709)", "T5 construct": "purchased Millipore, Inc. (KinaseProfiler service)", "summary_of_the_method": "as §1"}, "[6]": {"biological_target": "T6, Rsk4 (Homo sapiens, UniProt Q9UK32)", "T6 construct": "purchased Millipore, Inc. (KinaseProfiler service)", "T6 sequence (Q9UK32 whole entry)": "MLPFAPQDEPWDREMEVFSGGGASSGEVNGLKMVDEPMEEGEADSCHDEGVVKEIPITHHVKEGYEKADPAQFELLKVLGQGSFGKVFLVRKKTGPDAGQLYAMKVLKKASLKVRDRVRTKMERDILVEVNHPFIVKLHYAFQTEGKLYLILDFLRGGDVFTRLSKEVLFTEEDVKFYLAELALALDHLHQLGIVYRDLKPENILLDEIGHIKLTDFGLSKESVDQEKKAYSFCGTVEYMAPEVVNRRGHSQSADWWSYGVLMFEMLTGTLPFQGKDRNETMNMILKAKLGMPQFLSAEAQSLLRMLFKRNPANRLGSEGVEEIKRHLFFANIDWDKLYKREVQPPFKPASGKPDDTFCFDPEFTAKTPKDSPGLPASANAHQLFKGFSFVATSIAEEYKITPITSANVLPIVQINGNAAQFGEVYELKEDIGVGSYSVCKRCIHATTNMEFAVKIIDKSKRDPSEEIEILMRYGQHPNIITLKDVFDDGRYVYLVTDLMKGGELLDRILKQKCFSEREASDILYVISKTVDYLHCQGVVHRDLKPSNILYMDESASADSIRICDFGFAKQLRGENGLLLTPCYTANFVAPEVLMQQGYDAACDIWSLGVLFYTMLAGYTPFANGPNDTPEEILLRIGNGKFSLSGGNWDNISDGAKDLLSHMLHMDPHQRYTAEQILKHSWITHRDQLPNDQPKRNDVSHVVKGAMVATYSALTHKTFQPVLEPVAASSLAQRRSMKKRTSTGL", "summary_of_the_method": "as §1"}, "[7]": {"biological_target": "T7, CAMK2b (Homo sapiens, UniProt Q13554)", "T7 construct": "purchased Millipore (KinaseProfiler service)", "summary_of_the_method": "as §1"}, "[8]": {"biological_target": "T8, FGFR4 (Homo sapiens, UniProt P22455)", "T8 construct": "purchased Millipore, Inc. (KinaseProfiler service)", "T8 sequence (P22455 22-802)": "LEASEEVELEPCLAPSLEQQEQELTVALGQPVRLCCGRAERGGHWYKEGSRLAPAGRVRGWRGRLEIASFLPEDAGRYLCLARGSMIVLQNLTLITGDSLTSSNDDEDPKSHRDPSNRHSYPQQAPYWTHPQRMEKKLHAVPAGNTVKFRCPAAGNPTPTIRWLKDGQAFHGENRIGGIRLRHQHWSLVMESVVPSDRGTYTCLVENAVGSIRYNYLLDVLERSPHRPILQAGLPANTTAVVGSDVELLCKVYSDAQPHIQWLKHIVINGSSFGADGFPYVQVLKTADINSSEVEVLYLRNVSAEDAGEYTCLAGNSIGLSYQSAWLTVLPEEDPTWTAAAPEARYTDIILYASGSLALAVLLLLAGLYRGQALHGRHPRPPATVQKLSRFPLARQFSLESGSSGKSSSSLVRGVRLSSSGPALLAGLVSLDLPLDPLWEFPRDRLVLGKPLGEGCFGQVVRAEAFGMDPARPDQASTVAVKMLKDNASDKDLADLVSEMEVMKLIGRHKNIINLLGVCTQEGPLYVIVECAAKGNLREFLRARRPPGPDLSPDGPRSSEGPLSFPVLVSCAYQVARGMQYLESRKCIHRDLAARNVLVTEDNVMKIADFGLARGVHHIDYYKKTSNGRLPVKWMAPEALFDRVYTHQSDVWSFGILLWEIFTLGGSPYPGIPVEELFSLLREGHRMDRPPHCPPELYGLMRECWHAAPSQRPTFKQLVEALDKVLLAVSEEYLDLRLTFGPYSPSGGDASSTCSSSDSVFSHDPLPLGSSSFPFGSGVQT", "summary_of_the_method": "as §1"}, "[9]": {"biological_target": "T9, KIT (Homo sapiens, UniProt P10721)", "T9 construct": "purchased Millipore, Inc. (KinaseProfiler service)", "summary_of_the_method": "as §1"}, "[10]": {"biological_target": "T10, Rse (Homo sapiens, UniProt Q06418)", "T10 construct": "purchased Millipore, Inc. (KinaseProfiler service)", "T10 sequence (Q06418 41-890)": "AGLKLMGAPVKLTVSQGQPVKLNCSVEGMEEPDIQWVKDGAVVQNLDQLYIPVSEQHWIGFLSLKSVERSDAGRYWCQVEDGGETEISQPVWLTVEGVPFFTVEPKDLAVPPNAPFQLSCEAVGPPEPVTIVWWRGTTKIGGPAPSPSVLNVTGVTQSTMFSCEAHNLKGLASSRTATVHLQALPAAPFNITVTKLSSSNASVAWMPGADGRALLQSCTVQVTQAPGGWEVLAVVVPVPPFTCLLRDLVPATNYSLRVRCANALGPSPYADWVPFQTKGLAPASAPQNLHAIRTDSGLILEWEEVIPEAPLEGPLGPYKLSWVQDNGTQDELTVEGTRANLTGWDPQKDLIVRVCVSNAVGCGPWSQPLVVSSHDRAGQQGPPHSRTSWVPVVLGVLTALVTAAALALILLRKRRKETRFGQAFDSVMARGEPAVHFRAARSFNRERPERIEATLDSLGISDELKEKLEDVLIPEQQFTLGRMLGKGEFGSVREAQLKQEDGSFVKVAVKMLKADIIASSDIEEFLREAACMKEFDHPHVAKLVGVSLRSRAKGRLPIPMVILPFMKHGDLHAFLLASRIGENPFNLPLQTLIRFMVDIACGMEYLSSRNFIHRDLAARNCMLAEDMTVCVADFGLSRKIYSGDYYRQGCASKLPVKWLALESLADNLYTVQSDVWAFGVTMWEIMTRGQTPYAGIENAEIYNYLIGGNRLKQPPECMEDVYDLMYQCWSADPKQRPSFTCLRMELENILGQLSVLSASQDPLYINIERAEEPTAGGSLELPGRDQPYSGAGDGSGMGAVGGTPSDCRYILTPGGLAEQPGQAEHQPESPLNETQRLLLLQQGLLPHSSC", "summary_of_the_method": "as §1"}, "[11]": {"biological_target": "T11, DYRK2 (Homo sapiens, UniProt Q92630)", "T11 construct": "purchased Millipore, Inc. (KinaseProfiler service)", "T11 sequence (Q92630 whole entry)": "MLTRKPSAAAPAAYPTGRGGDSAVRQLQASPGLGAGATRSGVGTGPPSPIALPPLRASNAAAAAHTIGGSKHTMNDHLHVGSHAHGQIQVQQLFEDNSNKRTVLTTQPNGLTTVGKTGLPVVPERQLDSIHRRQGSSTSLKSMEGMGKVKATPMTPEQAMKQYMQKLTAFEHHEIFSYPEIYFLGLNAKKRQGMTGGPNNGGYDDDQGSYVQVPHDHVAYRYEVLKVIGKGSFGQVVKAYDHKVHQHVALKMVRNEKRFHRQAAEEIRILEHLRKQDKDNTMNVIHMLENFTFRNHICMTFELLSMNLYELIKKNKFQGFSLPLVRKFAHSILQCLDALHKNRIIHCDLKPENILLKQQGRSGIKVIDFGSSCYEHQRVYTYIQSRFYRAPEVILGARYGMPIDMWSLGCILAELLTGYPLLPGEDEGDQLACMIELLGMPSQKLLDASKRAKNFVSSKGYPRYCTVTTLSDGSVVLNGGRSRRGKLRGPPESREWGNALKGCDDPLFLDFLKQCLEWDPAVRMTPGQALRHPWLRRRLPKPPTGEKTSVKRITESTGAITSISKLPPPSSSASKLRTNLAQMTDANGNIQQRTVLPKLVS", "summary_of_the_method": "as §1"}, "[12]": {"biological_target": "T12, FGFR2 (Homo sapiens, UniProt P21802)", "T12 construct": "purchased Millipore, Inc. (KinaseProfiler service)", "summary_of_the_method": "as §1"}, "[13]": {"biological_target": "T13, PKCepsilon (Homo sapiens, UniProt Q02156)", "T13 construct": "purchased Millipore, Inc. (KinaseProfiler service)", "summary_of_the_method": "as §1"}, "[14]": {"biological_target": "T14, GSK3alpha (Homo sapiens, UniProt P49840)", "T14 construct": "purchased Millipore, Inc. (KinaseProfiler service)", "summary_of_the_method": "as §1"}, "[15]": {"biological_target": "T15, MRCKbeta (Homo sapiens, UniProt Q9Y5S2)", "T15 construct": "purchased Millipore, Inc. (KinaseProfiler service)", "summary_of_the_method": "as §1"}, "[16]": {"biological_target": "T16, Bmx (Homo sapiens, UniProt P51813)", "T16 construct": "purchased Millipore (KinaseProfiler service)", "summary_of_the_method": "as §1"}, "[17]": {"biological_target": "T17, CK1gamma2 (Homo sapiens, UniProt P78368)", "T17 construct": "purchased Millipore, Inc. (KinaseProfiler service)", "summary_of_the_method": "as §1"}, "[18]": {"biological_target": "T18, MLK1 (Homo sapiens, UniProt P80192)", "T18 construct": "purchased Millipore, Inc. (KinaseProfiler service)", "T18 sequence (P80192 whole entry)": "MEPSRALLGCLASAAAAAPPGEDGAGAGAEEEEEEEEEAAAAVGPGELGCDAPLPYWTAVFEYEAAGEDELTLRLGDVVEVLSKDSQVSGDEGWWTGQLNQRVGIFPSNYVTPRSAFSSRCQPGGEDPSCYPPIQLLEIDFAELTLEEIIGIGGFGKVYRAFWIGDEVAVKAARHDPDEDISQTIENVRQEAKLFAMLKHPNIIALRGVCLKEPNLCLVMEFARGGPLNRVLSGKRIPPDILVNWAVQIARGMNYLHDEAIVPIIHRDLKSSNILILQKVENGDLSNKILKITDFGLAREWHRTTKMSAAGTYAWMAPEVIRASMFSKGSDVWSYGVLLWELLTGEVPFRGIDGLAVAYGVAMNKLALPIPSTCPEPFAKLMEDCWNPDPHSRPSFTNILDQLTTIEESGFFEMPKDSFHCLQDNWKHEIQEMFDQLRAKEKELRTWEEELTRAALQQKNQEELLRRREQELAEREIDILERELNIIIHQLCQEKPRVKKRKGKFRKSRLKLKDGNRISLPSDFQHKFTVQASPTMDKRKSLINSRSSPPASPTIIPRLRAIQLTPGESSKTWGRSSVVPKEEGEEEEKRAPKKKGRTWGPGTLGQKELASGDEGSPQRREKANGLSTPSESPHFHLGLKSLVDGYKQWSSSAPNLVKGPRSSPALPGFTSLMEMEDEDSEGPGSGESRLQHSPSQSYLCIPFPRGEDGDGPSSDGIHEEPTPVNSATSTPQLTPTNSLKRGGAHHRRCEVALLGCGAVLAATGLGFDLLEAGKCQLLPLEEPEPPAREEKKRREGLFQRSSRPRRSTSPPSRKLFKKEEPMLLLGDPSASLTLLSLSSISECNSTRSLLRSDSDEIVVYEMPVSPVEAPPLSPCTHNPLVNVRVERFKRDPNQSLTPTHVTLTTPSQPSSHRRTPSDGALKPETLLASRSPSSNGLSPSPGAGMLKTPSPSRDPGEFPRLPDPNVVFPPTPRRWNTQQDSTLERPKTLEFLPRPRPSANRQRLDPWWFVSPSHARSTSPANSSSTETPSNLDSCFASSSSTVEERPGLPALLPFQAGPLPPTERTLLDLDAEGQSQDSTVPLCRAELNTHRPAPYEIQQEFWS", "summary_of_the_method": "as §1"}, "[19]": {"biological_target": "T19, EphB1 (Homo sapiens, UniProt P54762)", "T19 construct": "purchased Millipore, Inc. (KinaseProfiler service)", "summary_of_the_method": "as §1"}, "[20]": {"biological_target": "T20, EphA2 (Homo sapiens, UniProt P29317)", "T20 construct": "purchased Millipore, Inc. (KinaseProfiler service)", "summary_of_the_method": "as §1"}, "[21]": {"biological_target": "T21, AKT1 (Homo sapiens, UniProt P31749)", "T21 construct": "purchased Millipore (KinaseProfiler service)", "summary_of_the_method": "as §1"}, "[22]": {"biological_target": "T22, CDK9/cyclinT1 (Homo sapiens, UniProt P50750)", "T22 construct": "purchased Millipore, Inc. (KinaseProfiler service)", "summary_of_the_method": "as §1"}, "[23]": {"biological_target": "T23, CDK5/p35 (Homo sapiens, UniProt Q00535)", "T23 construct": "purchased Millipore, Inc. (KinaseProfiler service)", "summary_of_the_method": "as §1"}, "[24]": {"biological_target": "T24, TEC Activated (Homo sapiens, UniProt P42680)", "T24 construct": "purchased Millipore, Inc. (KinaseProfiler service)", "summary_of_the_method": "as §1"}, "[25]": {"biological_target": "T25, VRK2 (Homo sapiens, UniProt Q86Y07)", "T25 construct": "purchased Millipore, Inc. (KinaseProfiler service)", "T25 sequence (Q86Y07 whole entry)": "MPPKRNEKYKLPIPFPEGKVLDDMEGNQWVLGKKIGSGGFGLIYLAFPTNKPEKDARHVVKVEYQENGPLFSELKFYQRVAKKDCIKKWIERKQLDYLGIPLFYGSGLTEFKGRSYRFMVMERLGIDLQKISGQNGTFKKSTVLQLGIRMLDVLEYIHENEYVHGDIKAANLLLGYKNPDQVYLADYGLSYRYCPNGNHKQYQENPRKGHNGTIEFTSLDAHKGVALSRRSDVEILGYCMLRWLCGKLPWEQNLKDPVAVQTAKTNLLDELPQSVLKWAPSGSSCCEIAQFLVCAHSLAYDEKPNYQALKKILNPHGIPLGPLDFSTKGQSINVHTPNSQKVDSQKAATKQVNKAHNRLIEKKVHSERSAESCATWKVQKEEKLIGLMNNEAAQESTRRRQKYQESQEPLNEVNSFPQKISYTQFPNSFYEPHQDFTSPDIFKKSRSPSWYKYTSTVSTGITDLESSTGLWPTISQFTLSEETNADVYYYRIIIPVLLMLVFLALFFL", "summary_of_the_method": "as §1"}, "[26]": {"biological_target": "T26, KDR (Homo sapiens, UniProt P35968)", "T26 construct": "purchased Millipore, Inc. (KinaseProfiler service)", "summary_of_the_method": "as §1"}, "[27]": {"biological_target": "T27, MARK2 (Homo sapiens, UniProt Q7KZI7)", "T27 construct": "purchased Millipore, Inc. (KinaseProfiler service)", "summary_of_the_method": "as §1"}, "[28]": {"biological_target": "T28, Pim-3 (Homo sapiens, UniProt Q86V86)", "T28 construct": "purchased Millipore, Inc. (KinaseProfiler service)", "summary_of_the_method": "as §1"}, "[29]": {"biological_target": "T29, JNK3 (Homo sapiens, UniProt P53779)", "T29 construct": "purchased Millipore, Inc. (KinaseProfiler service)", "T29 sequence (P53779 whole entry)": "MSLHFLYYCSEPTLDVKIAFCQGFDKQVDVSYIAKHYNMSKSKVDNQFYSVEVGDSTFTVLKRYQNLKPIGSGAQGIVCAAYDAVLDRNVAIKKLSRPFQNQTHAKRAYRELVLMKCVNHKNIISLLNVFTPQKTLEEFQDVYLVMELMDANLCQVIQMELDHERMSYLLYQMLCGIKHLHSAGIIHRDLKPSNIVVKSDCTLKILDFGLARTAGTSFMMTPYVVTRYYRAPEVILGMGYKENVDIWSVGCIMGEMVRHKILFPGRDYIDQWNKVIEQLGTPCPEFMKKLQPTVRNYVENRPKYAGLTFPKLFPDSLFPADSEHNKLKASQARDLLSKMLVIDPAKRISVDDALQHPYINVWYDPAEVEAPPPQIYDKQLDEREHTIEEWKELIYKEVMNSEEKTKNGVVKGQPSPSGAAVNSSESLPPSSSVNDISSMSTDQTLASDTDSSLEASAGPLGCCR", "summary_of_the_method": "as §1"}, "[30]": {"biological_target": "T30, NLK (Homo sapiens, UniProt Q9UBE8)", "T30 construct": "purchased Millipore, Inc. (KinaseProfiler service)", "summary_of_the_method": "as §1"}, "[31]": {"biological_target": "T31, Plk1 (Homo sapiens, UniProt P53350)", "T31 construct": "purchased Millipore, Inc. (KinaseProfiler service)", "summary_of_the_method": "as §1"}, "[32]": {"biological_target": "T32, AURKA (Homo sapiens, UniProt O14965)", "T32 construct": "purchased Millipore (KinaseProfiler service)", "summary_of_the_method": "as §1"}, "[33]": {"biological_target": "T33, p38gamma (Homo sapiens, UniProt P53778)", "T33 construct": "purchased Millipore, Inc. (KinaseProfiler service)", "summary_of_the_method": "as §1"}, "[34]": {"biological_target": "T34, TSSK1 (Homo sapiens, UniProt Q9BXA7)", "T34 construct": "purchased Millipore, Inc. (KinaseProfiler service)", "summary_of_the_method": "as §1"}, "[35]": {"biological_target": "T35, Fms (Homo sapiens, UniProt P07333)", "T35 construct": "purchased Millipore, Inc. (KinaseProfiler service)", "summary_of_the_method": "as §1"}, "[36]": {"biological_target": "T36, Plk2 (Homo sapiens, UniProt Q9NYY3)", "T36 construct": "purchased Millipore, Inc. (KinaseProfiler service)", "summary_of_the_method": "as §1"}, "[37]": {"biological_target": "T37, Axl (Homo sapiens, UniProt P30530)", "T37 construct": "purchased Millipore (KinaseProfiler service)", "summary_of_the_method": "as §1"}, "[38]": {"biological_target": "T38, DAPK1 (Homo sapiens, UniProt P53355)", "T38 construct": "purchased Millipore, Inc. (KinaseProfiler service)", "summary_of_the_method": "as §1"}, "[39]": {"biological_target": "T39, ULK2 (Homo sapiens, UniProt Q8IYT8)", "T39 construct": "purchased Millipore, Inc. (KinaseProfiler service)", "summary_of_the_method": "as §1"}, "[40]": {"biological_target": "T40, ARKS (Homo sapiens, UniProt O60285)", "T40 construct": "purchased Millipore (KinaseProfiler service)", "summary_of_the_method": "as §1"}, "[41]": {"biological_target": "T41, PTK6 (Homo sapiens, UniProt Q13882)", "T41 construct": "purchased Millipore, Inc. (KinaseProfiler service)", "summary_of_the_method": "as §1"}}}
{"smiles": "COCCCc1cc(Cl)c(Cl)cc1NC(=O)Nc1c(C)c(-c2cnn(C)c2)nn1-c1ccccc1", "note": "[Example 15, 1-(4,5-dichloro-2-(3-methoxypropyl)phenyl)-3-(1′,4-dimethyl-1-phenyl-1H,1′H-[3,4′-bipyrazol]-5-yl)urea]", "values": [{"measurement": "Avg POC", "setting": "[1]", "value": 101, "unit": "POC"}, {"measurement": "Avg POC", "setting": "[2]", "value": 111.5, "unit": "POC"}, {"measurement": "Avg POC", "setting": "[3]", "value": 95, "unit": "POC"}, {"measurement": "Avg POC", "setting": "[4]", "value": 92.5, "unit": "POC"}, {"measurement": "Avg POC", "setting": "[5]", "value": 117, "unit": "POC"}, {"measurement": "Avg POC", "setting": "[6]", "value": 105, "unit": "POC"}, {"measurement": "Avg POC", "setting": "[7]", "value": 101.5, "unit": "POC"}, {"measurement": "Avg POC", "setting": "[8]", "value": 120, "unit": "POC"}, {"measurement": "Avg POC", "setting": "[9]", "value": 99.5, "unit": "POC"}, {"measurement": "Avg POC", "setting": "[10]", "value": 109, "unit": "POC"}, {"measurement": "Avg POC", "setting": "[11]", "value": 93.5, "unit": "POC"}, {"measurement": "Avg POC", "setting": "[12]", "value": 108, "unit": "POC"}, {"measurement": "Avg POC", "setting": "[13]", "value": 97, "unit": "POC"}, {"measurement": "Avg POC", "setting": "[14]", "value": 131, "unit": "POC"}, {"measurement": "Avg POC", "setting": "[15]", "value": 105.5, "unit": "POC"}, {"measurement": "Avg POC", "setting": "[16]", "value": 129.5, "unit": "POC"}, {"measurement": "Avg POC", "setting": "[17]", "value": 120, "unit": "POC"}, {"measurement": "Avg POC", "setting": "[18]", "value": 110.5, "unit": "POC"}, {"measurement": "Avg POC", "setting": "[19]", "value": 130, "unit": "POC"}, {"measurement": "Avg POC", "setting": "[20]", "value": 104, "unit": "POC"}, {"measurement": "Avg POC", "setting": "[21]", "value": 120, "unit": "POC"}, {"measurement": "Avg POC", "setting": "[22]", "value": 112.5, "unit": "POC"}, {"measurement": "Avg POC", "setting": "[23]", "value": 110, "unit": "POC"}, {"measurement": "Avg POC", "setting": "[24]", "value": 101.5, "unit": "POC"}, {"measurement": "Avg POC", "setting": "[25]", "value": 94, "unit": "POC"}, {"measurement": "Avg POC", "setting": "[26]", "value": 136, "unit": "POC"}, {"measurement": "Avg POC", "setting": "[27]", "value": 101.5, "unit": "POC"}, {"measurement": "Avg POC", "setting": "[28]", "value": 105.5, "unit": "POC"}, {"measurement": "Avg POC", "setting": "[29]", "value": 104, "unit": "POC"}, {"measurement": "Avg POC", "setting": "[30]", "value": 117, "unit": "POC"}, {"measurement": "Avg POC", "setting": "[31]", "value": 89.5, "unit": "POC"}, {"measurement": "Avg POC", "setting": "[32]", "value": 113.5, "unit": "POC"}, {"measurement": "Avg POC", "setting": "[33]", "value": 108, "unit": "POC"}, {"measurement": "Avg POC", "setting": "[34]", "value": 80, "unit": "POC"}, {"measurement": "Avg POC", "setting": "[35]", "value": 94, "unit": "POC"}, {"measurement": "Avg POC", "setting": "[36]", "value": 105, "unit": "POC"}, {"measurement": "Avg POC", "setting": "[37]", "value": 107, "unit": "POC"}, {"measurement": "Avg POC", "setting": "[38]", "value": 121.5, "unit": "POC"}, {"measurement": "Avg POC", "setting": "[39]", "value": 95, "unit": "POC"}, {"measurement": "Avg POC", "setting": "[40]", "value": 97.5, "unit": "POC"}, {"measurement": "Avg POC", "setting": "[41]", "value": 124, "unit": "POC"}]}
